Target: Mutant B-Raf (V600E) enzyme (MT B-Raf) (Homo sapiens, UniProt P15056, V600E)
Experiment: biochemical
Details: B-Raf Alpha screen comparable to the described assay; phosphorylation of biotinylated HIS-MEK-AVI; results may be an average of two or more results

Chain of Mutant B-Raf (V600E) enzyme (MT B-Raf) (P15056 whole entry V600E): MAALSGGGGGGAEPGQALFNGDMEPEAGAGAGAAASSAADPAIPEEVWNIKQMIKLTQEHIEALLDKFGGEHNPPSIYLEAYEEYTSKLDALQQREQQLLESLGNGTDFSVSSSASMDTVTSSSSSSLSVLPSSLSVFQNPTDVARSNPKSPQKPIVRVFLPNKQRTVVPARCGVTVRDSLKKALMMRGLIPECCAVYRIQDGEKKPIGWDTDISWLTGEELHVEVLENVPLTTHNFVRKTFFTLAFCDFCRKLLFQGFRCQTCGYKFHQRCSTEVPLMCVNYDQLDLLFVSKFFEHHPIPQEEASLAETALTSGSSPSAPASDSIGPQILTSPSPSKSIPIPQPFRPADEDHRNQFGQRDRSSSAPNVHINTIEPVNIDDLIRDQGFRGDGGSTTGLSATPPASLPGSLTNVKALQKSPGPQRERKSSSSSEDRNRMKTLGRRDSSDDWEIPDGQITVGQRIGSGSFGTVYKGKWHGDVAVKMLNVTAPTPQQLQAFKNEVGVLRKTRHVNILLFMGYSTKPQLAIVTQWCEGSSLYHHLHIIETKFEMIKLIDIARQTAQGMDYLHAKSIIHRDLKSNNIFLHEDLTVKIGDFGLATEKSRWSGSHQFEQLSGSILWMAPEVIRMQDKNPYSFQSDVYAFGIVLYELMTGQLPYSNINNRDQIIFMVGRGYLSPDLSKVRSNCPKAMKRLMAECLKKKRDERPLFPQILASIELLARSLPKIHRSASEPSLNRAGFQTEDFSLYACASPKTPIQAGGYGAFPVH

Row | Structure (SMILES) | IC50 [nM]
1 | Oc1ccc(Nc2ncc3cc(-c4ccncc4)ccc3n2)cc1 [Example 81, 4-[(6-Pyridin-4-ylquinazolin-2-yl)amino]phenol] | 61
2 | Cc1cc(Nc2ncc3cc(-c4ccncc4)ccc3n2)ccc1C(C)N(C)P(C)(C)=O (centres unmarked) [Example 130] | 120
3 | CC1(C)OCC(CNC(=O)c2ccc(Nc3ncc4cc(-c5ccncc5)ccc4n3)cc2)O1 (centres unmarked) [Example 16, N-[(2,2-Dimethyl-1,3-dioxolan-4-yl)methyl]-4-[(6-pyridin-4-ylquinazolin-2-yl)amino]benzamide] | 200
4 | O=S(=O)(c1cccc(Nc2ncc3cc(-c4ccncc4)ccc3n2)c1)N1CCCC1 [Example 93, 6-Pyridin-4-yl-N-[3-(pyrrolidin-1-ylsulfonyl)phenyl]quinazolin-2-amine] | 3000
5 | CC(=O)c1ccc(Nc2ncc3cc(-c4ccncc4)ccc3n2)cc1 [Example 53, 1-{4-[(6-Pyridin-4-ylquinazolin-2-yl)amino]phenyl}ethanone] | 210
6 | Cc1ccc(Nc2ncc3cc(-c4ccncc4)ccc3n2)cc1 [Example 106, N-(4-Methylphenyl)-6-pyridin-4-ylquinazolin-2-amine] | 23000
7 | COc1ccc(Nc2ncc3cc(-c4ccncc4)ccc3n2)cc1 [Example 41, N-(4-Methoxyphenyl)-6-pyridin-4-ylquinazolin-2-amine] | 460
8 | O=C(NCCO)c1ccc(Nc2ncc3cc(-c4ccncc4)ccc3n2)cc1 [Example 7, N-(2-Hydroxyethyl)-4-[(6-pyridin-4-ylquinazolin-2-yl)amino]benzamide] | 140
9 | Cn1ccc(Nc2ncc3cc(-c4ccncc4)ccc3n2)n1 [Example 88, N-(1-Methyl-1H-pyrazol-3-yl)-6-pyridin-4-ylquinazolin-2-amine] | 1820
10 | CN(C)CCOc1ccc(Nc2ncc3cc(-c4ccncc4)ccc3n2)cc1 [Example 40, N-{4-[2-(Dimethylamino)ethoxy]phenyl}-6-pyridin-4-ylquinazolin-2-amine] | 160
11 | CN(C)C1CCN(C(=O)c2ccc(Nc3ncc4cc(-c5ccncc5)ccc4n3)cc2)C1 (centres unmarked) [Example 117] | 73
12 | CN1CCN(C(=O)c2ccc(Nc3ncc4cc(-c5ccncc5)ccc4n3)cc2)CC1 [Example 120] | 56
13 | CN(C)[C@H]1CCN(C(=O)c2ccc(Nc3ncc4cc(-c5ccncc5)ccc4n3)cc2)C1 [Example 118] | 93
14 | COCCNS(=O)(=O)c1ccc(Nc2ncc3cc(-c4ccncc4)ccc3n2)cc1 [Example 113] | 100
15 | CN1CCN(Cc2ccc(Nc3ncc4cc(-c5ccncc5)ccc4n3)cc2)CC1 [Example 132] | 73
16 | O=S(=O)(c1cccc(Nc2ncc3cc(-c4ccncc4)ccc3n2)c1)N1CCCCC1 [Example 100, N-[3-(Piperidin-1-ylsulfonyl)phenyl]-6-pyridin-4-ylquinazolin-2-amine] | 1000
17 | Cc1cc(Nc2ncc3cc(-c4ccncc4)ccc3n2)ccc1C(=O)NCCN1CCCCC1 [Example 51, 2-Methyl-N-(2-(piperidin-1-yl)ethyl)-4-(6-(pyridin-4-yl)quinazolin-2-ylamino)benzamide] | 130
18 | Nc1ccc(Nc2ncc3cc(-c4ccncc4)ccc3n2)cc1 [Example 137] | 80
19 | COCCNC(=O)c1cccc(Nc2ncc3cc(-c4ccncc4)ccc3n2)n1 [Example 38, N-(2-Methoxyethyl)-6-[(6-pyridin-4-ylquinazolin-2-yl)amino]pyridine-2-carboxamide] | 1500
20 | c1cc(-c2ccc3nc(Nc4ccc(N5CCCCC5)cc4)ncc3c2)ccn1 [Example 89, N-(4-Piperidin-1-ylphenyl)-6-pyridin-4-ylquinazolin-2-amine] | 280
21 | CN1CCCC1CCNCc1ccc(Nc2ncc3cc(-c4ccncc4)ccc3n2)cc1 (centres unmarked) [Example 72, N-[4-({[2-(1-Methylpyrrolidin-2-yl)ethyl]amino}methyl)phenyl]-6-pyridin-4-ylquinazolin-2-amine] | 260
22 | O=C(NCCN1CCCCC1)c1ccc(Nc2ncc3cc(-c4ccncc4)ccc3n2)cc1 [Example 27, N-(2-Piperidin-1-ylethyl)-4-[(6-pyridin-4-ylquinazolin-2-yl)amino]benzamide] | 87
23 | CC(O)CCNC(=O)c1ccc(Nc2ncc3cc(-c4ccncc4)ccc3n2)cc1 (centres unmarked) [Example 34, N-(3-Hydroxybutyl)-4-[(6-pyridin-4-ylquinazolin-2-yl)amino]benzamide] | 270
24 | O=C(NCC1CCNCC1)c1ccc(Nc2ncc3cc(-c4ccncc4)ccc3n2)cc1 [Example 64, N-(Piperidin-4-ylmethyl)-4-[(6-pyridin-4-ylquinazolin-2-yl)amino]benzamide] | 22
25 | CC(=O)N1CCN(C(=O)c2ccc(Nc3ncc4cc(-c5ccncc5)ccc4n3)cc2)CC1 [Example 119] | 64
26 | O=C(O)c1ccc(Nc2ncc3cc(-c4ccncc4)ccc3n2)cc1 [Example 122, 4-(6-(Pyridin-4-yl)quinazolin-2-ylamino)benzoic acid] | 78
27 | Cc1cccc(Nc2ncc3cc(-c4ccncc4)ccc3n2)c1 [Example 83, N-(3-Methylphenyl)-6-pyridin-4-ylquinazolin-2-amine] | 630

The next lines start with the values.

Row | IC50 [nM] | Structure (SMILES)
28 | 34 | CCCNC(C)c1ccc(Nc2ncc3cc(-c4ccncc4)ccc3n2)cc1 (single isomer, unassigned) [Example 141]
29 | 110 | c1cc(-c2ccc3nc(Nc4ccc(N5CCOCC5)nc4)ncc3c2)ccn1 [Example 90, N-(6-Morpholin-4-ylpyridin-3-yl)-6-pyridin-4-ylquinazolin-2-amine]
30 | 1200 | Fc1ccc(Nc2ncc3cc(-c4ccncc4)ccc3n2)cc1 [Example 105, N-(4-Fluorophenyl)-6-pyridin-4-ylquinazolin-2-amine]
31 | 29 | CC(NCCO)c1ccc(Nc2ncc3cc(-c4ccncc4)ccc3n2)cc1 (centres unmarked) [Example 57, 2-[(1-{4-[(6-Pyridin-4-ylquinazolin-2-yl)amino]phenyl}ethyl)amino]ethanol]
32 | 130 | c1cc(-c2ccc3nc(Nc4ccc(N5CCOCC5)cc4)ncc3c2)ccn1 [Example 79, N-(4-Morpholin-4-ylphenyl)-6-pyridin-4-ylquinazolin-2-amine]
33 | 160 | c1cc(-c2ccc3nc(Nc4ccc(OCCN5CCOCC5)cc4)ncc3c2)ccn1 [Example 43, N-[4-(2-Morpholin-4-ylethoxy)phenyl]-6-pyridin-4-ylquinazolin-2-amine]
34 | 390 | c1cc(Nc2ncc3cc(-c4ccncc4)ccc3n2)cc(N2CCOCC2)c1 [Example 85, N-(3-Morpholin-4-ylphenyl)-6-pyridin-4-ylquinazolin-2-amine]
35 | 740 | O=S(=O)(c1ccc(Nc2ncc3cc(-c4ccncc4)ccc3n2)cc1)N1CCCC1 [Example 96, 6-Pyridin-4-yl-N-[4-(pyrrolidin-1-ylsulfonyl)phenyl]quinazolin-2-amine]
36 | 2200 | COc1cc(Nc2ncc3cc(-c4ccncc4)ccc3n2)ccc1C [Example 87, N-(3-Methoxy-4-methylphenyl)-6-pyridin-4-ylquinazolin-2-amine]
37 | 110 | O=C(NC1CCNCC1)c1ccc(Nc2ncc3cc(-c4ccncc4)ccc3n2)cc1 [Example 67, N-Piperidin-4-yl-4-[(6-pyridin-4-ylquinazolin-2-yl)amino]benzamide]
38 | 24 | CN(CCO)Cc1ccc(Nc2ncc3cc(-c4ccncc4)ccc3n2)cc1 [Example 75, 2-(Methyl{4-[(6-pyridin-4-ylquinazolin-2-yl)amino]benzyl}amino)ethanol]
39 | 95 | Cc1cc(Nc2ncc3cc(-c4ccncc4)ccc3n2)ccc1C(=O)NCCN(C)C [Example 36, N-[2-(Dimethylamino)ethyl]-2-methyl-4-[(6-pyridin-4-ylquinazolin-2-yl)amino]benzamide]
40 | 62 | CS(=O)(=O)c1ccc(Nc2ncc3cc(-c4ccncc4)ccc3n2)cc1 [Example 103, N-[4-(Methylsulfonyl)phenyl]-6-pyridin-4-ylquinazolin-2-amine]
41 | 130 | COCC(C)NC(=O)c1ccc(Nc2ncc3cc(-c4ccncc4)ccc3n2)cc1 (centres unmarked) [Example 32, N-(2-Methoxy-1-methylethyl)-4-[(6-pyridin-4-ylquinazolin-2-yl)amino]benzamide]
42 | 120 | O=C1CCCN1c1ccc(Nc2ncc3cc(-c4ccncc4)ccc3n2)cc1 [Example 54, 1-{4-[(6-Pyridin-4-ylquinazolin-2-yl)amino]phenyl}pyrrolidin-2-one]
43 | 350 | COCCNC(=O)c1ccc(Nc2ncc3cc(-c4ccncc4)ccc3n2)cc1Cl [Example 10, 2-Chloro-N-(2-methoxyethyl)-4-[(6-pyridin-4-ylquinazolin-2-yl)amino]benzamide]
44 | 160 | Cc1cc(Nc2ncc3cc(-c4ccncc4)ccc3n2)ccc1C(=O)NCCN1CCOCC1 [Example 33, 2-Methyl-N-(2-morpholin-4-ylethyl)-4-[(6-pyridin-4-ylquinazolin-2-yl)amino]benzamide]
45 | 1300 | COCCNC(=O)c1ccc(Nc2ncc3cc(-c4ccncc4)ccc3n2)nc1 [Example 18, N-(2-Methoxyethyl)-6-[(6-pyridin-4-ylquinazolin-2-yl)amino]nicotinamide]
46 | 700 | CNCCNC(=O)c1ccnc(Nc2ncc3cc(-c4ccncc4)ccc3n2)c1 [Example 66, N-[2-(Methylamino)ethyl]-2-[(6-pyridin-4-ylquinazolin-2-yl)amino]isonicotinamide]
47 | 26 | CC(O)CCNC(C)c1ccc(Nc2ncc3cc(-c4ccncc4)ccc3n2)cc1 (centres unmarked) [Example 56, 4-[(1-{4-[(6-Pyridin-4-ylquinazolin-2-yl)amino]phenyl}ethyl)amino]butan-2-ol]
48 | 120 | OCCc1ccc(Nc2ncc3cc(-c4ccncc4)ccc3n2)cc1 [Example 52, 2-{4-[(6-Pyridin-4-ylquinazolin-2-yl)amino]phenyl}ethanol]
49 | 250 | c1cnn(-c2ccc(Nc3ncc4cc(-c5ccncc5)ccc4n3)cc2)c1 [Example 108, N-[4-(1H-Pyrazol-1-yl)phenyl]-6-pyridin-4-ylquinazolin-2-amine]
50 | 3100 | FC(F)(F)c1cccc(Nc2ncc3cc(-c4ccncc4)ccc3n2)c1 [Example 82, 6-Pyridin-4-yl-N-[3-(trifluoromethyl)phenyl]quinazolin-2-amine]

Source: patent publication US20100216791A1, “PYRIDINYLQUINAZOLINAMINE DERIVATIVES AND THEIR USE AS B-RAF INHIBITORS” (ASTRAZENECA, priority 2006, published 2010)
